Test results: patent US20120094964A1, “SULFAMOYL BENZOIC ACID DERIVATIVES AS TRPM8 ANTAGONISTS” (priority 2009, published 2012)

Molecular target: T1, human TRPM8 (Homo sapiens, UniProt Q7Z2W7)
T1 construct: expressed in transfected cells
Test: In Vitro human TRPM8 Functional Assay (intracellular Ca2+, Fluo4, FDSS, menthol activation)
Assay type: cell-based
Details: HEK293 cells stably expressing human TRPM8; activation with L-(-)-Menthol; 11-point dose-response
Protocol: In Vitro human TRPM8 Functional Assay
The functional activity of compounds was determined by measuring changes in intracellular calcium concentration using a Ca^2+-sensitive fluorescent dye, Fluo4 (Molecular Probes). The changes in fluorescent signal were monitored by the cell imaging technology by Hamamatsu Photonics's Functional Drug Screening System (FDSS).
HEK293 cells stably expressing human TRPM8 were grown in T175 flasks, in a 5% CO2 humidified incubator to about 80% confluence. Media composition consisted of Dulbecco's Modified Eagle Medium (high glucose), 10% fetal calf serum (FCS), 100 units/ml Penicillin, 100 microg/ml Streptomycin and 600 microg/ml Geneticine.
1. Plate-out HEK293-TRPM8 cells (40 microL medium containing 30,000 cells per well) into poly-D-lysine coated 384-well plates (BD FALCON) at 24 hours prior to assay.
1. […] 2. […] 3. Place the plate at room temperature in dark for 1 hour. 4. […] 5. Add 20 microL of compound solutions into each well and leave the plate for 5 minutes under the dark at room temperature. 6. Measure activity by FDSS as follows: • Set the assay plate on the stacker of FDSS • Start the detection of fluorescence intensity • After 30 sec, add 20 microL of 90 microM L-(−)-Menthol
IC50 values for compounds of the present invention were determined from 11-point dose-response studies. Curves were generated using the average of duplicate wells for each data point. Finally, the IC50 values are calculated with the best-fit dose curve determined by XLfit (ID Business Solutions Ltd.).

T1 sequence (Q7Z2W7 whole entry): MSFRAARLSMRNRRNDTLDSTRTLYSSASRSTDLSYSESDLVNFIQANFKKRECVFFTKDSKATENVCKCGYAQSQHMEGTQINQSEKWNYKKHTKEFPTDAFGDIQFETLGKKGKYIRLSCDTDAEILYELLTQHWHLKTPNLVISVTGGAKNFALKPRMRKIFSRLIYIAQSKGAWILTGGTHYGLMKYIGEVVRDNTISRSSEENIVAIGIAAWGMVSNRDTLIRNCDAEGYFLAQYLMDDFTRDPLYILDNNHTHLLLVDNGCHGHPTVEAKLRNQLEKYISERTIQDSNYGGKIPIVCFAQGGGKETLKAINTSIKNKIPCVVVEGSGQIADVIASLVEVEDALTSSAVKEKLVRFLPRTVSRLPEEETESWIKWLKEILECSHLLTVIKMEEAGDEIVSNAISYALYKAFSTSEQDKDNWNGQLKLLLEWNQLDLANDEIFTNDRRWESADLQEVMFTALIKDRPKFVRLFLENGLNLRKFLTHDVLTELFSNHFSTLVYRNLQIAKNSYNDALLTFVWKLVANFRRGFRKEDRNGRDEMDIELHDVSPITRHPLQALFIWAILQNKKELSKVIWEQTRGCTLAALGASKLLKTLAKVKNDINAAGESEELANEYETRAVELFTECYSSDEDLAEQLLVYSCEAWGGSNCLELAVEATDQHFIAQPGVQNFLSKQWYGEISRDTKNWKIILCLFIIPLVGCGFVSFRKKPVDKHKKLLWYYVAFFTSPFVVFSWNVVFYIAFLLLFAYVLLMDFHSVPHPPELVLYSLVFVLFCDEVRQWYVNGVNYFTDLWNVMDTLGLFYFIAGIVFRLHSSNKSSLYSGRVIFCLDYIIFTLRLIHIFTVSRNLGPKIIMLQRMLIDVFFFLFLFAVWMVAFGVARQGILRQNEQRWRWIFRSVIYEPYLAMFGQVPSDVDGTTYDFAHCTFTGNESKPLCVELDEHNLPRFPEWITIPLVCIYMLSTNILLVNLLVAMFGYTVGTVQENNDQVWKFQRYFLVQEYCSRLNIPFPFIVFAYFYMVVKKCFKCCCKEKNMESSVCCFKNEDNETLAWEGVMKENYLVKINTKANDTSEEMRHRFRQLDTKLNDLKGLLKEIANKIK

SMILES	IC50 [nM]
O=C(O)c1ccc(S(=O)(=O)N(Cc2ccccc2)c2cc(C(F)(F)F)ccn2)cc1 [Example 21, 4-(N-Benzyl-N-(4-(trifluoromethyl)pyridin-2-yl)sulfamoyl)benzoic acid]	1000 to 10000
O=C(O)c1ccc(S(=O)(=O)N(Cc2ccccc2)c2ncc(C(F)(F)F)cc2Cl)cc1 [Example 1, 4-(N-Benzyl-N-(3-chloro-5-(trifluoromethyl)pyridin-2-yl)sulfamoyl)benzoic acid]	< 1000
O=C(O)c1ccc(Cl)c(S(=O)(=O)N(Cc2ccccc2)c2ccc(Cl)cc2)c1 [Example 110, 3-(N-Benzyl-N-(4-chlorophenyl)sulfamoyl)-4-chlorobenzoic acid]	1000 to 10000
O=S(=O)(Nc1cccc(C(F)(F)F)c1)c1ccccc1 [Example 4, N-(3-(Trifluoromethyl)phenyl)benzenesulfonamide]	10000 to 30000
COc1ccc(N(Cc2ccccc2)S(=O)(=O)c2ccc(Cl)c(C(=O)O)c2)cc1 [Example 119, 5-(N-Benzyl-N-(4-methoxyphenyl)sulfamoyl)-2-chlorobenzoic acid]	10000 to 30000
O=C(CN(c1cccc(C(F)(F)F)c1)S(=O)(=O)c1ccccc1)Nc1ccccc1 [Example 8, N-Phenyl-2-(N-(3-(trifluoromethyl)phenyl)benzenesulfonamido)acetamide]	1000 to 10000
O=C(O)c1ccc(S(=O)(=O)N(Cc2ccccc2)c2ncccc2C(F)(F)F)cc1 [Example 2, 4-(N-Benzyl-N-(3-(trifluoromethyl)pyridin-2-yl)sulfamoyl)benzoic acid]	10000 to 30000
Cc1cccnc1N(Cc1ccccc1)S(=O)(=O)c1ccc(C(=O)O)cc1 [Example 34, 4-(N-Benzyl-N-(3-methylpyridin-2-yl)sulfamoyl)benzoic acid]	1000 to 10000
Cc1cc(C(=O)O)ccc1S(=O)(=O)N(Cc1ccccc1)c1ncc(C(F)(F)F)cc1Cl [Example 145, 4-(N-Benzyl-N-(3-chloro-5-(trifluoromethyl)pyridin-2-yl)sulfamoyl)-3-methylbenzoic acid]	< 1000
COc1cc(C(=O)O)ccc1S(=O)(=O)N(Cc1ccccc1)c1ncc(C(F)(F)F)cc1Cl [Example 146, 4-(N-Benzyl-N-(3-chloro-5-(trifluoromethyl)pyridin-2-yl)sulfamoyl)-3-methoxybenzoic acid]	< 1000
O=C(O)c1ccc(Cl)c(S(=O)(=O)N(Cc2ccccc2)c2ccc(F)cc2)c1 [Example 123, 3-(N-Benzyl-N-(4-fluorophenyl)sulfamoyl)-4-chlorobenzoic acid]	10000 to 30000
O=S(=O)(c1ccc(F)cc1)N(Cc1ccccc1)c1ccccn1 [Example 108, N-Benzyl-4-fluoro-N-(pyridin-2-yl)benezene-sulfonamide]	1000 to 10000
O=C(O)c1ccc(S(=O)(=O)N(Cc2ccccc2)c2ncc(C(F)(F)F)cc2Br)cc1 [Example 151, 4-(N-Benzyl-N-(3-bromo-5-(trifluoromethyl)pyridin-2-yl)sulfamoyl)benzoic acid]	< 1000
O=C(O)c1ccc(S(=O)(=O)N(Cc2ccccc2)c2ncccc2Cl)cc1 [Example 37, 4-(N-Benzyl-N-(3-chloropyridin-2-yl)sulfamoyl)benzoic acid]	1000 to 10000
COc1cccc(N(C(C)c2ccccc2)S(=O)(=O)c2ccc(F)c(Cl)c2)c1 (centres unmarked) [Example 94, 3-Chloro-4-fluoro-N-(3-methoxyphenyl)-N-(1-phenylethyl)benzene-sulfonamide]	1000 to 10000
O=S(=O)(c1cccc2cccnc12)N(Cc1ccccc1)c1ccccn1 [Example 128, N-Benzyl-N-(pyridin-2-yl) quinoline-8-sulfonamide]	1000 to 10000
Cc1cc(Cl)cnc1N(Cc1ccc(F)c(C(F)(F)F)c1)S(=O)(=O)c1ccc(C(=O)O)cc1 [Example 76, 4-(N-(5-Chloro-3-methylpyridin-2-yl)-N-(4-fluoro-3-(trifluoromethyl)benzyl)sulfamoyl)benzoic acid]	< 1000
O=C(O)c1ccc(S(=O)(=O)N(Cc2ccc(OC(F)(F)F)cc2)c2ncc(Cl)cc2Cl)cc1 [Example 63, 4-(N-(3,5-Dichloropyridin-2-yl)-N-(4-(trifluoromethoxy)benzyl)sulfamoyl)benzoic acid]	< 1000

The next lines start with the values.

IC50 [nM]	SMILES
< 1000	O=C(O)c1ccc(S(=O)(=O)N(Cc2ccc(-c3cnco3)cc2)c2ncc(C(F)(F)F)cc2Cl)cc1 [Example 159, 4-(N-(3-Chloro-5-(trifluoromethyl)pyridin-2-yl)-N-(4-(oxazol-5-yl)benzyl)sulfamoyl)benzoic acid]
< 1000	C[C@@H](c1ccccc1)N(c1ncc(C(F)(F)F)cc1Cl)S(=O)(=O)c1ccc(C(=O)O)cc1 [Example 197, (S)-4-(N-(3-Chloro-5-(trifluoromethyl)pyridin-2-yl)-N-(1-phenylethyl)sulfamoyl)benzoic acid]
< 1000	O=C(O)c1ccc(S(=O)(=O)N(CC2CCC2)c2ncc(C(F)(F)F)cc2Cl)cc1 [Example 171, 4-(N-(3-Chloro-5-(trifluoromethyl)pyridin-2-yl)-N-(cyclobutylmethyl)sulfamoyl)benzoic acid]
< 1000	O=C(O)c1ccc(S(=O)(=O)N(Cc2cccs2)c2ncc(C(F)(F)F)cc2Cl)cc1 [Example 167, 4-(N-(3-Chloro-5-(trifluoromethyl)pyridin-2-yl)-N-(thiophen-2-ylmethyl)sulfamoyl)benzoic acid]
< 1000	O=C(O)c1ccc(S(=O)(=O)N(Cc2ccccc2)c2ncc(C(F)(F)F)cc2Cl)cc1F [Example 191, 4-(N-Benzyl-N-(3-chloro-5-(trifluoromethyl)pyridin-2-yl)sulfamoyl)-2-fluorobenzoic acid]
< 1000	O=C(O)c1ccc(S(=O)(=O)N(c2ncc(C(F)(F)F)cc2Cl)C2(c3ccccc3)CC2)cc1 [Example 193, 4-(N-(3-Chloro-5-(trifluoromethyl)pyridin-2-yl)-N-(1-phenylcyclopropyl)sulfamoyl)benzoic acid]
< 1000	O=C(O)c1ccc(S(=O)(=O)N(Cc2noc(-c3ccccc3)n2)c2ncc(C(F)(F)F)cc2Cl)cc1 [Example 199, 4-(N-(3-Chloro-5-(trifluoromethyl)pyridin-2-yl)-N-((5-phenyl-1,2,4-oxadiazol-3-yl)methyl)sulfamoyl)benzoic acid]
< 1000	CS(=O)(=O)NCc1ccc(S(=O)(=O)N(Cc2ccccc2)c2ncc(C(F)(F)F)cc2Cl)cc1 [Example 176, N-Benzyl-N-(3-chloro-5-(trifluoromethyl)pyridin-2-yl)-4-(methylsulfonamidomethyl)benzenesulfonamide]
< 1000	NC(=O)Nc1ccc(S(=O)(=O)N(Cc2ccccc2)c2ncc(C(F)(F)F)cc2Cl)cc1 [Example 195, N-Benzyl-N-(3-chloro-5-(trifluoromethyl)pyridin-2-yl)-4-ureidobenzenesulfonamide]
< 1000	NS(=O)(=O)Nc1ccc(S(=O)(=O)N(Cc2ccccc2)c2ncc(C(F)(F)F)cc2Cl)cc1 [Example 196, N-Benzyl-N-(3-chloro-5-(trifluoromethyl)pyridin-2-yl)-4-(sulfamoylamino)benzenesulfonamide]
< 1000	O=S(=O)(c1ccc(-c2nn[nH]n2)cc1)N(Cc1ccccc1)c1ncc(C(F)(F)F)cc1Cl [Example 174, N-Benzyl-N-(3-chloro-5-(trifluoromethyl)pyridin-2-yl)-4-(2H-tetrazol-5-yl)benzenesulfonamide]
